Results as given in ChEMBL document CHEMBL2010637, “Synthesis and evaluation of triazolones as checkpoint kinase 1 inhibitors” (Bioorg Med Chem Lett, 2012).

How the values were obtained:
[1] = AUC in nude mouse; assay type: ADME, organism-based; settings: plasma
[2] = Clearance in nude mouse; assay type: ADME, organism-based; settings: in vivo
[3] = Half life in nude mouse; assay type: ADME, organism-based; settings: in vivo
[4] = Volume of distribution at steady state in nude mouse; assay type: ADME, organism-based; settings: in vivo, read-out: Vdss
[5] = Lipophilicity, Log D of the compound; assay type: physicochemical; settings: octanol/water

Which results are given for O=c1[nH]nc2cc(CO)c3ccc(-c4ccc[nH]4)cc3n12?
AUC [1]: 5.47 µM·h; clearance [2]: 33 mL/min/kg; half-life [3]: 108 min; Vd [4]: 3.4 L/kg; logD [5]: 2.19
